According to the NIST ThermoML archive (doi:10.1016/j.jct.2005.06.015):

Assays:
[1] = 101 kPa, Liquid
[2] = refractive index (Na D-line) (dimensionless); conditions: 101.33 kPa, Liquid, Standard Abbe refractometry
[3] = xn = mol fraction of the nth substance listed; conditions: 101 kPa, Liquid
[4] = refractive index (Na D-line) (dimensionless); xn = mol fraction of the nth substance listed; conditions: 101 kPa, Liquid, Standard Abbe refractometry

ClC(Cl)C(Cl)Cl [1,1,2,2-tetrachloroethane]
Conditions | mass density, [1] [kg/m3] | refractive index, [2]
293.15 K | 1594.27 | 1.49387
303.15 K | 1574.85 | 1.48887

ClC(Cl)C(Cl)Cl [1,1,2,2-tetrachloroethane] + CCCCCCCCCCO
Conditions | mass density, [3] [kg/m3] | refractive index, [4]
293.15 K, x1 = 0.1023 | 874.88 | 1.44019
293.15 K, x1 = 0.2004 | 922 | 1.44342
293.15 K, x1 = 0.3006 | 974.95 | 1.44704
293.15 K, x1 = 0.4005 | 1033.5 | 1.45108
293.15 K, x1 = 0.5009 | 1099.29 | 1.45575
293.15 K, x1 = 0.6001 | 1172.37 | 1.46097
293.15 K, x1 = 0.6999 | 1255.81 | 1.46711
293.15 K, x1 = 0.8 | 1351.62 | 1.47434
293.15 K, x1 = 0.901 | 1464.04 | 1.48303
293.15 K, x1 = 1 | 1594.27 | 1.49387
303.15 K, x1 = 0.1023 | 867.03 | 1.43656
303.15 K, x1 = 0.2004 | 913.42 | 1.43969
303.15 K, x1 = 0.3006 | 965.57 | 1.44313
303.15 K, x1 = 0.4005 | 1023.2 | 1.44706
303.15 K, x1 = 0.5009 | 1087.89 | 1.45152
303.15 K, x1 = 0.6001 | 1159.72 | 1.45665
303.15 K, x1 = 0.6999 | 1241.75 | 1.46263
303.15 K, x1 = 0.8 | 1336.02 | 1.46974
303.15 K, x1 = 0.901 | 1446.7 | 1.47826
303.15 K, x1 = 1 | 1574.85 | 1.48887

ClC(Cl)C(Cl)Cl [1,1,2,2-tetrachloroethane] + CCCCCCCCO
Conditions | mass density, [3] [kg/m3] | refractive index, [4]
293.15 K, x1 = 0.1028 | 879.91 | 1.43403
293.15 K, x1 = 0.1967 | 933.27 | 1.43826
293.15 K, x1 = 0.2997 | 995.8 | 1.44321
293.15 K, x1 = 0.4005 | 1061.47 | 1.44845
293.15 K, x1 = 0.501 | 1132.1 | 1.45416
293.15 K, x1 = 0.6 | 1207.5 | 1.46034
293.15 K, x1 = 0.6999 | 1290.57 | 1.46723
293.15 K, x1 = 0.7998 | 1381.66 | 1.47492
293.15 K, x1 = 0.9007 | 1483.42 | 1.48379
293.15 K, x1 = 1 | 1594.27 | 1.49387
303.15 K, x1 = 0.1028 | 872.01 | 1.43011
303.15 K, x1 = 0.1967 | 924.42 | 1.43419
303.15 K, x1 = 0.2997 | 985.92 | 1.43892
303.15 K, x1 = 0.4005 | 1050.64 | 1.44404
303.15 K, x1 = 0.501 | 1120.29 | 1.44968
303.15 K, x1 = 0.6 | 1194.6 | 1.45579
303.15 K, x1 = 0.6999 | 1276.31 | 1.46262
303.15 K, x1 = 0.7998 | 1365.71 | 1.47026
303.15 K, x1 = 0.9007 | 1465.56 | 1.47898
303.15 K, x1 = 1 | 1574.85 | 1.48887

ClC(Cl)C(Cl)Cl [1,1,2,2-tetrachloroethane] + CCCCCCCO
Conditions | mass density, [3] [kg/m3] | refractive index, [4]
293.15 K, x1 = 0.1022 | 883.03 | 1.42952
293.15 K, x1 = 0.1995 | 943.76 | 1.43494
293.15 K, x1 = 0.3002 | 1009.72 | 1.4406
293.15 K, x1 = 0.4008 | 1079.02 | 1.44661
293.15 K, x1 = 0.5001 | 1151.23 | 1.45297
293.15 K, x1 = 0.599 | 1227.43 | 1.45976
293.15 K, x1 = 0.6996 | 1310.04 | 1.46717
293.15 K, x1 = 0.7999 | 1398.24 | 1.47525
293.15 K, x1 = 0.9015 | 1494.17 | 1.48421
293.15 K, x1 = 1 | 1594.27 | 1.49387
303.15 K, x1 = 0.1022 | 875.27 | 1.42581
303.15 K, x1 = 0.1995 | 934.97 | 1.43106
303.15 K, x1 = 0.3002 | 999.87 | 1.43653
303.15 K, x1 = 0.4008 | 1068.12 | 1.44244
303.15 K, x1 = 0.5001 | 1139.25 | 1.44861
303.15 K, x1 = 0.599 | 1214.28 | 1.45521
303.15 K, x1 = 0.6996 | 1295.52 | 1.46254
303.15 K, x1 = 0.7999 | 1382.11 | 1.4705
303.15 K, x1 = 0.9015 | 1476.3 | 1.47937
303.15 K, x1 = 1 | 1574.85 | 1.48887

ClC(Cl)C(Cl)Cl [1,1,2,2-tetrachloroethane] + CCCCCCO
Conditions | mass density, [3] [kg/m3] | refractive index, [4]
293.15 K, x1 = 0.1003 | 886.07 | 1.4247
293.15 K, x1 = 0.2011 | 955.51 | 1.43135
293.15 K, x1 = 0.3006 | 1025.9 | 1.438
293.15 K, x1 = 0.4004 | 1098.46 | 1.44486
293.15 K, x1 = 0.5 | 1173.27 | 1.45201
293.15 K, x1 = 0.6009 | 1251.57 | 1.45957
293.15 K, x1 = 0.7002 | 1331.64 | 1.46735
293.15 K, x1 = 0.8004 | 1415.64 | 1.47556
293.15 K, x1 = 0.9011 | 1503.8 | 1.48444
293.15 K, x1 = 1 | 1594.27 | 1.49387
303.15 K, x1 = 0.1003 | 877.89 | 1.42076
303.15 K, x1 = 0.2011 | 946.24 | 1.42723
303.15 K, x1 = 0.3006 | 1015.59 | 1.43378
303.15 K, x1 = 0.4004 | 1087.1 | 1.4405
303.15 K, x1 = 0.5 | 1160.79 | 1.4475
303.15 K, x1 = 0.6009 | 1237.85 | 1.45495
303.15 K, x1 = 0.7002 | 1316.58 | 1.46264
303.15 K, x1 = 0.8004 | 1399.12 | 1.47082
303.15 K, x1 = 0.9011 | 1485.78 | 1.4796
303.15 K, x1 = 1 | 1574.85 | 1.48887

ClC(Cl)C(Cl)Cl [1,1,2,2-tetrachloroethane] + CCCCCO
Conditions | mass density, [3] [kg/m3] | refractive index, [4]
293.15 K, x1 = 0.1015 | 892.95 | 1.41801
293.15 K, x1 = 0.2006 | 969.17 | 1.42587
293.15 K, x1 = 0.3019 | 1046.97 | 1.43392
293.15 K, x1 = 0.4001 | 1122.53 | 1.44184
293.15 K, x1 = 0.5005 | 1199.96 | 1.45
293.15 K, x1 = 0.5995 | 1276.74 | 1.45825
293.15 K, x1 = 0.7005 | 1355.55 | 1.46691
293.15 K, x1 = 0.8008 | 1434.56 | 1.4757
293.15 K, x1 = 0.9001 | 1513.69 | 1.48463
293.15 K, x1 = 1 | 1594.27 | 1.49387
303.15 K, x1 = 0.1015 | 884.5 | 1.41395
303.15 K, x1 = 0.2006 | 959.53 | 1.42166
303.15 K, x1 = 0.3019 | 1036.17 | 1.42959
303.15 K, x1 = 0.4001 | 1110.64 | 1.43735
303.15 K, x1 = 0.5005 | 1186.94 | 1.44547
303.15 K, x1 = 0.5995 | 1262.57 | 1.45363
303.15 K, x1 = 0.7005 | 1340.1 | 1.46218
303.15 K, x1 = 0.8008 | 1417.76 | 1.47093
303.15 K, x1 = 0.9001 | 1495.54 | 1.47979
303.15 K, x1 = 1 | 1574.85 | 1.48887

CCCCCCCCCCO [decan-1-ol]
Conditions | mass density, [1] [kg/m3] | refractive index, [2]
293.15 K | 829.84 | 1.43694
303.15 K | 822.83 | 1.43364

CCCCCCCCCCO [decan-1-ol] + ClC(Cl)C(Cl)Cl
x2 = 0
Conditions | mass density, [3] [kg/m3] | refractive index, [4]
293.15 K | 829.84 | 1.43694
303.15 K | 822.83 | 1.43364

CCCCCCCO [heptan-1-ol]
Conditions | mass density, [1] [kg/m3] | refractive index, [2]
293.15 K | 822.14 | 1.42397
303.15 K | 815.41 | 1.42047

CCCCCCCO [heptan-1-ol] + ClC(Cl)C(Cl)Cl
x2 = 0
Conditions | mass density, [3] [kg/m3] | refractive index, [4]
293.15 K | 822.14 | 1.42397
303.15 K | 815.41 | 1.42047

CCCCCCO [hexan-1-ol]
Conditions | mass density, [1] [kg/m3] | refractive index, [2]
293.15 K | 818.72 | 1.41807
303.15 K | 811.73 | 1.41423

CCCCCCO [hexan-1-ol] + ClC(Cl)C(Cl)Cl
x2 = 0
Conditions | mass density, [3] [kg/m3] | refractive index, [4]
293.15 K | 818.72 | 1.41807
303.15 K | 811.73 | 1.41423

CCCCCCCCO [octan-1-ol]
Conditions | mass density, [1] [kg/m3] | refractive index, [2]
293.15 K | 825 | 1.42941
303.15 K | 818.09 | 1.42563

CCCCCCCCO [octan-1-ol] + ClC(Cl)C(Cl)Cl
x2 = 0
Conditions | mass density, [3] [kg/m3] | refractive index, [4]
293.15 K | 825 | 1.42941
303.15 K | 818.09 | 1.42563

CCCCCO [pentan-1-ol]
Conditions | mass density, [1] [kg/m3] | refractive index, [2]
293.15 K | 814.72 | 1.40976
303.15 K | 807.6 | 1.40592

CCCCCO [pentan-1-ol] + ClC(Cl)C(Cl)Cl
x2 = 0
Conditions | mass density, [3] [kg/m3] | refractive index, [4]
293.15 K | 814.72 | 1.40976
303.15 K | 807.6 | 1.40592
